Measured values as given in publication PMC11864979, “First-in-class ultralong-target-residence-time p38α inhibitors as a mitosis-targeted therapy for colorectal cancer” (Nature Cancer, 2025).
Like-named read-outs stand apart in the source and are kept apart here.

Key:
Test in all cases: selectivity profiling in a panel of 340 wild-type kinases (Reaction Biology Europe)
Format in all cases: binding
340 wild-type kinases [1] = molecular target: T1, 340 wild-type kinases (Homo sapiens, UniProt Q8NG66)
T1 construct: purchased Reaction Biology Europe
T1 sequence (Q8NG66 1-645): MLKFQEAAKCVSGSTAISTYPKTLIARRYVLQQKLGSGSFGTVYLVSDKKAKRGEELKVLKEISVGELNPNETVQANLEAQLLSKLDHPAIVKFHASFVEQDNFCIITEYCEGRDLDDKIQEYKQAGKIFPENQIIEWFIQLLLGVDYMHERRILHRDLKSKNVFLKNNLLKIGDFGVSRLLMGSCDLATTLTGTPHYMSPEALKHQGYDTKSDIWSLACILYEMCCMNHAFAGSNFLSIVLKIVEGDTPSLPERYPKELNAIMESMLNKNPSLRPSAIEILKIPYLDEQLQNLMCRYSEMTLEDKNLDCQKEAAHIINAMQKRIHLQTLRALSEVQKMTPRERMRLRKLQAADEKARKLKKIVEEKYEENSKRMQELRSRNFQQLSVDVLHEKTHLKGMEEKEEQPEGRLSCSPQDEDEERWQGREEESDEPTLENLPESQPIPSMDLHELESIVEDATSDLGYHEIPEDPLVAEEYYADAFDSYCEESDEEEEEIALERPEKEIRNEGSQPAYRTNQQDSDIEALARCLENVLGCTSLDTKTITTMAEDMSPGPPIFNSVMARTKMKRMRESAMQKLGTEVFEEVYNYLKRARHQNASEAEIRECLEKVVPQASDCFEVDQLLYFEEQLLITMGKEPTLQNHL

340 wild-type kinases [2] = molecular target: T2, 340 wild-type kinases (Homo sapiens, UniProt P28482)
T2 construct: purchased Reaction Biology Europe

340 wild-type kinases [3] = molecular target: T3, 340 wild-type kinases (Homo sapiens, UniProt P52564, S207D/T211D)
T3 construct: purchased Reaction Biology Europe
T3 sequence (P52564 1-334 S207D/T211D): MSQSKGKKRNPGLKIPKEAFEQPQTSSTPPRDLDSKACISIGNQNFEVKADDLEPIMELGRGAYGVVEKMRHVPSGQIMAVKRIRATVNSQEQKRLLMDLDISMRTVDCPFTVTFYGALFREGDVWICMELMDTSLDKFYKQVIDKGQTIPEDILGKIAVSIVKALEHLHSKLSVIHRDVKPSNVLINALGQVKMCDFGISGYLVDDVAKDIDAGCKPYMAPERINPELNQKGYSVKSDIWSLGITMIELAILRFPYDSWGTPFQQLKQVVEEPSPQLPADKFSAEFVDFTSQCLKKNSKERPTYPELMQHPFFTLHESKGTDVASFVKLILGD

340 wild-type kinases [4] = molecular target: T4, 340 wild-type kinases (Homo sapiens, UniProt P49840)
T4 construct: purchased Reaction Biology Europe

340 wild-type kinases [5] = molecular target: T5, 340 wild-type kinases (Homo sapiens, UniProt Q13705)
T5 construct: purchased Reaction Biology Europe

340 wild-type kinases [6] = molecular target: T6, 340 wild-type kinases (Homo sapiens, UniProt Q8WTQ7)
T6 construct: purchased Reaction Biology Europe
T6 sequence (Q8WTQ7 1-553): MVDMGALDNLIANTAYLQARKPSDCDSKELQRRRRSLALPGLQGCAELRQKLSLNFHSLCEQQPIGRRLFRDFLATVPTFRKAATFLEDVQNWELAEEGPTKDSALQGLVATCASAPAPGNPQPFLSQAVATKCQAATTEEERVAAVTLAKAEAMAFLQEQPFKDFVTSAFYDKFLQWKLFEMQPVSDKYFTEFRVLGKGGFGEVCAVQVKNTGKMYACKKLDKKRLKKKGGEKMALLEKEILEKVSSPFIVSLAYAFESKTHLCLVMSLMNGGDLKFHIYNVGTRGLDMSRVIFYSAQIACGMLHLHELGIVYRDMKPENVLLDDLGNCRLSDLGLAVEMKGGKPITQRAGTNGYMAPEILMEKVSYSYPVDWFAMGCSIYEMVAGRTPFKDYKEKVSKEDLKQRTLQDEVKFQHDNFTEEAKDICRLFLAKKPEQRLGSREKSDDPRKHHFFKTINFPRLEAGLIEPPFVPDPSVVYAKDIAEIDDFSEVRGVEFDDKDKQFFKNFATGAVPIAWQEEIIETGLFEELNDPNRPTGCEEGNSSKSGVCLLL

340 wild-type kinases [7] = molecular target: T7, 340 wild-type kinases (Homo sapiens, UniProt Q9P286)
T7 construct: purchased Reaction Biology Europe

340 wild-type kinases [8] = molecular target: T8, 340 wild-type kinases (Homo sapiens, UniProt Q9Y6M4)
T8 construct: purchased Reaction Biology Europe

340 wild-type kinases [9] = molecular target: T9, 340 wild-type kinases (Homo sapiens, UniProt P37173)
T9 construct: purchased Reaction Biology Europe
T9 sequence (P37173 23-567): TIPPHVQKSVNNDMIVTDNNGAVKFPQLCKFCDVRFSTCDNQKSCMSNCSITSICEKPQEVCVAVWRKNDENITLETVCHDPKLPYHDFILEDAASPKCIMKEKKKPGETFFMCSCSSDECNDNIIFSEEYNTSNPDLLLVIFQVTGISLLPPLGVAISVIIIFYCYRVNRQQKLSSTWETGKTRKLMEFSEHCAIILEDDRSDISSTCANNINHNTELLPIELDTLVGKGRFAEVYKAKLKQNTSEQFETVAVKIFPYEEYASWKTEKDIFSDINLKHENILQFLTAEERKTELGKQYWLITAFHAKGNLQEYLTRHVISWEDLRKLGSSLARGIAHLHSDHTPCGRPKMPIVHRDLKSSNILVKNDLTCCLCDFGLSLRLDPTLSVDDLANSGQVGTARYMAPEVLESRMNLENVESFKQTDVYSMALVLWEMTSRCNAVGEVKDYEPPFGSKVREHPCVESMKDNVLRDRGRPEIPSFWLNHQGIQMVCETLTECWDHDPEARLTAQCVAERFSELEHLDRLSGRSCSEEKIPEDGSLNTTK

T7 sequence (Q9P286 whole entry): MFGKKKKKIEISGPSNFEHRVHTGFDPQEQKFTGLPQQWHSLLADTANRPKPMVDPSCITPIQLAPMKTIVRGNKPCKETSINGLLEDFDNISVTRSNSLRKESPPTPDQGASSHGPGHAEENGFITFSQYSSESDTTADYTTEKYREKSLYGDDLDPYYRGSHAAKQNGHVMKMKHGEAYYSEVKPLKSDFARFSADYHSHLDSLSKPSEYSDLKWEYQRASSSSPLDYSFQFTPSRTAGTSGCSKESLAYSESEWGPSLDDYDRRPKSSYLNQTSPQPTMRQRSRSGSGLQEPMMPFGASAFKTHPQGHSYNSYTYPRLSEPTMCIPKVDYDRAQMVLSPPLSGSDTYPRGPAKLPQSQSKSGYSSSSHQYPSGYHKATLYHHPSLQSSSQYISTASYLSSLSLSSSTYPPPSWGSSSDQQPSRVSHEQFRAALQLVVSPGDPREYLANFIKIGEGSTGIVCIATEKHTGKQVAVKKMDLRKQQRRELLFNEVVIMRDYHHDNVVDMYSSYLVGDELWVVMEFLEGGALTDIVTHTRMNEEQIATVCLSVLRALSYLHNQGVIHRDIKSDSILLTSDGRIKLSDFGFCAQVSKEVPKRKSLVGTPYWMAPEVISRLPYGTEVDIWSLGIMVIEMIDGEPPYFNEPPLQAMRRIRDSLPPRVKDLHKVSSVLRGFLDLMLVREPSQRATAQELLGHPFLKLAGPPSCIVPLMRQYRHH
T2 sequence (P28482 whole entry): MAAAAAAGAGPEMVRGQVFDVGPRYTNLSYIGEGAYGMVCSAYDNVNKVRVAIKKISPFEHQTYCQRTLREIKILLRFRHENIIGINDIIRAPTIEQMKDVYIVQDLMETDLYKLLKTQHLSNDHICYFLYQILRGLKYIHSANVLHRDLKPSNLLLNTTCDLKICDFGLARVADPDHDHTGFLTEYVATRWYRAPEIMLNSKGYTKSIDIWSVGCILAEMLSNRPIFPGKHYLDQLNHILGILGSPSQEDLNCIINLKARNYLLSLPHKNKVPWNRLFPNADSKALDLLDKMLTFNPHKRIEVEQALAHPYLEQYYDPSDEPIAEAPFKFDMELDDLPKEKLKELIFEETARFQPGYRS
T5 sequence (Q13705 19-512): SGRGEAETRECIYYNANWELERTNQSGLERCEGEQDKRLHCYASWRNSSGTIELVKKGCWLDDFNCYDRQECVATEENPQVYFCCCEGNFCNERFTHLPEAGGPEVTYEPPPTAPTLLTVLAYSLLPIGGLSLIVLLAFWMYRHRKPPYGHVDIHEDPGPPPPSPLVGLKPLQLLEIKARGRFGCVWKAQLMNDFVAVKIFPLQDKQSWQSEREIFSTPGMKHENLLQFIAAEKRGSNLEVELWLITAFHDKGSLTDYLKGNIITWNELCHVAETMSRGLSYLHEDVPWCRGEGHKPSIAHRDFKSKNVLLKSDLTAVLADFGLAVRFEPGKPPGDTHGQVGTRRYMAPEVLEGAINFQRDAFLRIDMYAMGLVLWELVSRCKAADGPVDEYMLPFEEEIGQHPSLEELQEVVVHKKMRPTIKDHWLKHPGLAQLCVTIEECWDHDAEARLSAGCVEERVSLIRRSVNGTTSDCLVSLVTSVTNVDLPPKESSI
T4 sequence (P49840 whole entry): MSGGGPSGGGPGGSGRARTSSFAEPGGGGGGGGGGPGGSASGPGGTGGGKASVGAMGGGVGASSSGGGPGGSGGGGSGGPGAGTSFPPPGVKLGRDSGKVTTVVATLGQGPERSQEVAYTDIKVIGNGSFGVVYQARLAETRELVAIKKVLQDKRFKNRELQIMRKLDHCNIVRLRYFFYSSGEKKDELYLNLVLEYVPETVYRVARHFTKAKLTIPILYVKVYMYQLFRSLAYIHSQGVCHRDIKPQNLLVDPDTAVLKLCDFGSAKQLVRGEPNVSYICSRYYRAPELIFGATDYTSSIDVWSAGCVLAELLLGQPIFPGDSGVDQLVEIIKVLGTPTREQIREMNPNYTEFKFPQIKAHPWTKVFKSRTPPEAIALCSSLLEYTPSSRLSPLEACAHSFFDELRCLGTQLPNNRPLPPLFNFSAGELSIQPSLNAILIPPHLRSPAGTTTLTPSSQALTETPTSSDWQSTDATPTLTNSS
T8 sequence (Q9Y6M4 whole entry): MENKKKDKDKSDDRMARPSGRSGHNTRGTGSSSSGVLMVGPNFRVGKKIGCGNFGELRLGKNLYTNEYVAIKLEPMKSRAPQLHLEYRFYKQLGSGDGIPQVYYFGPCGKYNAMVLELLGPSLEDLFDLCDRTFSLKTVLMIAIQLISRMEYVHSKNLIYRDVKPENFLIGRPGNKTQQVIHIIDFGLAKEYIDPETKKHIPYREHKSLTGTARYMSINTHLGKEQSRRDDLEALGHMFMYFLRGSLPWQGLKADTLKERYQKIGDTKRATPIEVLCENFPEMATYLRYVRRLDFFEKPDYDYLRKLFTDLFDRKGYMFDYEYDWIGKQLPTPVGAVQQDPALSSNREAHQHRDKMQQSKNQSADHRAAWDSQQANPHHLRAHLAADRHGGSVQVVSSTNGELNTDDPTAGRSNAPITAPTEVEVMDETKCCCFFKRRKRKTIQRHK

## CNC(=O)c1ccc2c(c1)C(=O)c1ccc(Nc3ccc(F)c(NC(=O)C4CC4)c3)cc1CC2 [Compound 2015]
340 wild-type kinases [1]; 1 µM 2015, read-out: NEK11 residual activity
  remaining activity at 1 µM: 95.8%
340 wild-type kinases [1]; NEK11, 0.2 µM, read-out: residual activity
  remaining activity at 0.2 µM: 91.3%
340 wild-type kinases [1]; NEK11, 1 µM, read-out: residual activity
  remaining activity at 1 µM: 95.8%
340 wild-type kinases [2]; 0.2 µM 2015, read-out: ERK2 residual activity
  remaining activity at 0.2 µM: 99.1%
340 wild-type kinases [2]; 1 µM 2015, read-out: ERK2 residual activity
  remaining activity at 1 µM: 90.5%
340 wild-type kinases [2]; ERK2, 0.2 µM, read-out: residual activity
  remaining activity at 0.2 µM: 99.1%
340 wild-type kinases [2]; ERK2, 1 µM, read-out: residual activity
  remaining activity at 1 µM: 90.5%
340 wild-type kinases [3]; 0.2 µM 2015, read-out: MKK6 SDTD residual activity
  remaining activity at 0.2 µM: 83.9%
340 wild-type kinases [3]; 1 µM 2015, read-out: MKK6 SDTD residual activity
  remaining activity at 1 µM: 111%
340 wild-type kinases [3]; MKK6 SDTD, 0.2 µM, read-out: residual activity
  remaining activity at 0.2 µM: 83.9%
340 wild-type kinases [3]; MKK6 SDTD, 1 µM, read-out: residual activity
  remaining activity at 1 µM: 111%
340 wild-type kinases [4]; 0.2 µM 2015, read-out: GSK3alpha residual activity
  remaining activity at 0.2 µM: 110%
340 wild-type kinases [4]; 1 µM 2015, read-out: GSK3alpha residual activity
  remaining activity at 1 µM: 82.6%
340 wild-type kinases [4]; GSK3alpha, 0.2 µM, read-out: residual activity
  remaining activity at 0.2 µM: 110%
340 wild-type kinases [4]; GSK3alpha, 1 µM, read-out: residual activity
  remaining activity at 1 µM: 82.6%
340 wild-type kinases [5]; 0.2 µM 2015, read-out: ACVR2B residual activity
  remaining activity at 0.2 µM: 81.6%
340 wild-type kinases [5]; 1 µM 2015, read-out: ACVR2B residual activity
  remaining activity at 1 µM: 82.3%
340 wild-type kinases [5]; ACVR2B, 0.2 µM, read-out: residual activity
  remaining activity at 0.2 µM: 81.7%
340 wild-type kinases [5]; ACVR2B, 1 µM, read-out: residual activity
  remaining activity at 1 µM: 82.3%
340 wild-type kinases [6]; 0.2 µM 2015, read-out: GRK7 residual activity
  remaining activity at 0.2 µM: 123%
340 wild-type kinases [6]; 1 µM 2015, read-out: GRK7 residual activity
  remaining activity at 1 µM: 106%
340 wild-type kinases [6]; GRK7, 0.2 µM, read-out: residual activity
  remaining activity at 0.2 µM: 123%
340 wild-type kinases [6]; GRK7, 1 µM, read-out: residual activity
  remaining activity at 1 µM: 106%
340 wild-type kinases [7]; 0.2 µM 2015, read-out: PAK7 residual activity
  remaining activity at 0.2 µM: 97.1%
340 wild-type kinases [7]; 1 µM 2015, read-out: PAK7 residual activity
  remaining activity at 1 µM: 84.3%
340 wild-type kinases [7]; PAK7, 0.2 µM, read-out: residual activity
  remaining activity at 0.2 µM: 97.1%
340 wild-type kinases [7]; PAK7, 1 µM, read-out: residual activity
  remaining activity at 1 µM: 84.3%
340 wild-type kinases [8]; 0.2 µM 2015, read-out: CK1gamma3 residual activity
  remaining activity at 0.2 µM: 93.4%
340 wild-type kinases [8]; 1 µM 2015, read-out: CK1gamma3 residual activity
  remaining activity at 1 µM: 91%
340 wild-type kinases [8]; CK1gamma3, 0.2 µM, read-out: residual activity
  remaining activity at 0.2 µM: 93.4%
340 wild-type kinases [8]; CK1gamma3, 1 µM, read-out: residual activity
  remaining activity at 1 µM: 91%
340 wild-type kinases [9]; 0.2 µM 2015, read-out: TGFBR2 residual activity
  remaining activity at 0.2 µM: 78.4%
340 wild-type kinases [9]; 1 µM 2015, read-out: TGFBR2 residual activity
  remaining activity at 1 µM: 76.8%
340 wild-type kinases [9]; TGFBR2, 0.2 µM, read-out: residual activity
  remaining activity at 0.2 µM: 78.3%
340 wild-type kinases [9]; TGFBR2, 1 µM, read-out: residual activity
  remaining activity at 1 µM: 76.8%
